Target: T1, Protein mono-ADP-ribosyltransferase TIPARP (Homo sapiens, UniProt Q7Z3E1)
T1 sequence (Q7Z3E1 whole entry): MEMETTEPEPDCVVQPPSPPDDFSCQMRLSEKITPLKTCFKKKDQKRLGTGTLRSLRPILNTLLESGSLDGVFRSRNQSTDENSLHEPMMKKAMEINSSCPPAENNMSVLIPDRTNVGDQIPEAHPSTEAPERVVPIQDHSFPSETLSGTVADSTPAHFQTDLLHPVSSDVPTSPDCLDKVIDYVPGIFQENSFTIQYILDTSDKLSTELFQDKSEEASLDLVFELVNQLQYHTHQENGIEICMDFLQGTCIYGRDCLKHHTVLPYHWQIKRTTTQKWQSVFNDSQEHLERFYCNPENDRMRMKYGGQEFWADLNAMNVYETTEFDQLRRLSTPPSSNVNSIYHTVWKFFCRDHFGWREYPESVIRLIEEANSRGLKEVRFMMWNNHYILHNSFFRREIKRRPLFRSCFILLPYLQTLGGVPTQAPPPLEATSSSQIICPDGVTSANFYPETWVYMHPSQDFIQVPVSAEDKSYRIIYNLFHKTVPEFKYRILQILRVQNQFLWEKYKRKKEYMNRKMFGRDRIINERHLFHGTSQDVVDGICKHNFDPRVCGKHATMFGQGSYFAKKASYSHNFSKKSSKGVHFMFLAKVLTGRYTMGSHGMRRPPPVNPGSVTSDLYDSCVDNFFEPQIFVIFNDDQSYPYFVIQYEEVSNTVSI
Assay: Enzymatic Biochemical Assay of PARP
Experimental: The specific scheme was as follows: the 1× histone mixture was added to a 96-well plate at 50 μL per well, and the plate was incubated overnight at 4° C. The next day, after the plate was washed with PBST, 200 μL of blocking buffer per well was added, and the plate was incubated for 90 min. After the plate was washed with PBST again, 5 μL of inhibitor, 20 μL of 1×PARP buffer and 25 μL of […] were added to each well, and the plate was incubated at room temperature for 30 min. After the plate was washed with PBST, 100 μL of Elisa ECL substrate A and B mixture was added to each well, chemiluminescence value was immediately read using a plate reader, and IC50 values were calculated.

Question: How did the IC50 turn out when C[C@@H](COCc1nn2c(c1Cl)CN(c1cnc(C(F)(F)F)cn1)CC2)Nc1cn[nH]c(=O)c1C(F)(F)F [US20240158406, Compound 14] was run?
Answer: < 0.01 µM
